The text below walks through data of US12724175B2, “Contact lens with optical prophylaxis” (High Performance Optics, Inc., priority 2021, dated 2026).

Data set [1] in a line: Solubility studies at 500 ppm in solvent, monomers and simulated formulation. On the procedure: The solubilities of exemplary compounds 8 and 9 were evaluated in various solvent systems in comparison with copper tetraphenylporphyrin (Cu-TPP) as a control.
• 1. Weigh 3 to 4 mg of the Copper porphyrin compound into an 8 mL scintillation vial • 2. In the case of one solvent or monomer, dilute to 500 ppm with the solvent or monomer, add a stir bar, and stir mixture overnight. • 3. In the case of multiple solvents, add the best solvent for the copper porphyrin first, add a stir bar and stir for 1 hour. Add the other solvents and stir overnight. • 4. Evaluate solution miscibility after stirring overnight.

Data set [2] in a line: UV-visible transmittance, molar extinction coefficient of Soret band. In kind it is physicochemical. The conditions noted are these: concentrations 300 to 1000 ppm. As to the method:
^1H-NMR spectra were recorded on Bruker 600 MHz spectrometer. CD3OD (Methanol-d3) and DMSO-d6 (Dimethyl sulfoxide-d6) were used as solvents. UPLC of porphyrins was acquired on ACQUITY UPLC H-Class PLUS UPLC with Waters PDA detector, using Phenomenex Jupiter® 5 μm C18 300 Å, LC Column (150×2.0 mm). LC-MS of porphyrins was acquired on The Thermo Scientific™ Q Exactive™ HF hybrid quadrupole-Orbitrap mass spectrometer, using Phenomenex Aeris™ 3.6 μm WIDEPORE C4 200 Å, LC Column (50×2.1 mm). UV-vis spectra were obtained on Perkin Elmer Lambda 850 UV-Vis Spectrophotometer.
Compound 8 also characterized by UV-visible transmittance at concentrations ranging from 300 to 1000 ppm (FIG. 15). Molar extinction coefficients of 490,000-544,000 M-1 cm-1 for Soret band are in agreement with literature values for similar metallated porphyrins (Taniguchi, M.; Lindsey, J. S. Photochemistry and Photobiology, 2018, 94, 290-327).
Compound 9 also characterized by UV-visible transmittance at concentrations ranging from 300 to 1000 ppm (FIG. 16). Molar extinction coefficients of 490,000-544,000 M^−1 cm^−1 for Soret band are in agreement with literature values for similar metallated porphyrins (Taniguchi, M.; Lindsey, J. S. Photochemistry and Photobiology, 2018, 94, 290-327).

A short description of data set [3]: Stability under simulated photocuring conditions (450 nm LED, photoinitiator). In kind it is physicochemical. As to the method: (§1) The stabilities of exemplary compounds 8 and 9 were evaluated under various conditions in the presence of initiator and monomer under curing conditions in comparison with copper tetraphenylporphyrin (Cu-TPP) and zinc tetraphenylporphyrin (Zn-TPP) as controls.
Experimental Procedure for Photo-Curing System:
• (A) for Stability Test without Monomers • 1. Parent solution: Dimethylacetamide (DMAC) solutions (200-500 ppm) of corresponding porphyrins, namely ZnTPP (200 ppm), CuTPP (200 ppm), Cu-TBP-Am (500 ppm), and Cu-TBP-MAm (500 ppm) were prepared in amber glass vial. The solutions were allowed to stir at room temperature for about 0.5 hour to provide homogeneous solutions. Photoinitiator (0.6 wt %) was added to each solution (under yellow light), and the solution was stirred for another 1 hour. • 2. Solution “BEFORE” Thermal Treatment & UV-VIS Measurement: The solution was transferred into 100 μm quartz cell and UV-Vis spectra were recorded using Perkin Elmer Lambda 850 UV-Vis Spectrophotometer. The spectrum was regarded as “before”. • 3. Photocuring of Parent Solution: Each quartz cell was exposed to 450 nm LED light with intensity of 55 mW/cm^2 for 30 s. • 4. Solution “AFTER” photocuring & UV-VIS Measurement: UV-Vis spectra of solutions in 100 μm quartz cell exposed to LED light were recorded using Perkin Elmer Lambda 850 UV-Vis Spectrophotometer. The spectrum was regarded as “after”. • 5. % T Calculation: % Loss is expressed as % T increase at the specific wavelength of Soret band for each porphyrin solution. • (B) For Stability Test with Monomers • 1. Parent solution: Cu-TBP-Am and Cu-TBP-MAm were dissolved in DMA (30 wt %), TRIS (30 wt %) and 1-PrOH (40 wt %) in amber glass vial to afford 500 ppm porphyrin solutions. The solutions were allowed to stir at room temperature for about 0.5 hour to provide homogeneous solutions. Photoinitiator (0.6 wt %) was added to each solution (under yellow light), and the solution was stirred for another 1 hour. • 2. Solution “BEFORE” Thermal Treatment & UV-VIS Measurement: The solution was transferred into 100 μm quartz cell and UV-Vis spectra were recorded using Perkin Elmer Lambda 850 UV-Vis Spectrophotometer. The spectrum was regarded as “before”. • 3. Photocuring of Parent Solution: Each quartz cell was exposed to 450 nm LED light with intensity of 55 mW/cm^2 for 30 s. • 4. Solution “AFTER” photocuring & UV-VIS Measurement: UV-Vis spectra of solutions in 100 μm quartz cell exposed to LED light were recorded using Perkin Elmer Lambda 850 UV-Vis Spectrophotometer. The spectrum was regarded as “after”. • 5. % T Calculation: % Loss is expressed as % T increase at the specific wavelength of Soret band for each porphyrin solution. Experimental Procedure for Thermal-Curing System: • (A) for Stability Test without Monomers • 1. Parent solution: Dimethylacetamide (DMAC) solutions (500 ppm) of corresponding porphyrins, namely ZnTPP, CuTPP, Cu-TBP-Am, and Cu-TBP-MAm were prepared in amber glass vial. The solutions were allowed to stir at room temperature for about 0.5 hours to provide homogeneous solutions. Vazo 64 (0.5 wt %) was added to each solution, and the solution was stirred for another 10 minutes. Each solution was bubbled with nitrogen for 5 minutes to remove oxygen. • 2. […] The solution was transferred into 1 cm quartz cell and UV-Vis spectra were recorded using Perkin Elmer Lambda 850 UV-Vis Spectrophotometer. […]

Data set [4] can be described thus: Stability under simulated thermal curing conditions (Vazo 64, 80° C., 2 hours). In kind it is physicochemical. The settings on record: 500 ppm, Vazo 64 0.5 wt %; for Stability under simulated thermal curing, without monomers: DMAC. On the procedure: as §1
• (A) for Stability Test without Monomers • 1. Parent solution: Dimethylacetamide (DMAC) solutions (200-500 ppm) of corresponding porphyrins, namely ZnTPP (200 ppm), CuTPP (200 ppm), Cu-TBP-Am (500 ppm), and Cu-TBP-MAm (500 ppm) were prepared in amber glass vial. The solutions were allowed to stir at room temperature for about 0.5 hour to provide homogeneous solutions. Photoinitiator (0.6 wt %) was added to each solution (under yellow light), and the solution was stirred for another 1 hour. • 2. Solution “BEFORE” Thermal Treatment & UV-VIS Measurement: The solution was transferred into 100 μm quartz cell and UV-Vis spectra were recorded using Perkin Elmer Lambda 850 UV-Vis Spectrophotometer. The spectrum was regarded as “before”. • 3. […] Solution “AFTER” photocuring & UV-VIS Measurement: UV-Vis spectra of solutions in 100 μm quartz cell exposed to LED light were recorded using Perkin Elmer Lambda 850 UV-Vis Spectrophotometer. The spectrum was regarded as “after”. • 5. % T Calculation: % Loss is expressed as % T increase at the specific wavelength of Soret band for each porphyrin solution. • (B) For Stability Test with Monomers • 1. […] Solution “BEFORE” Thermal Treatment & UV-VIS Measurement: The solution was transferred into 100 μm quartz cell and UV-Vis spectra were recorded using Perkin Elmer Lambda 850 UV-Vis Spectrophotometer. […] Solution “AFTER” photocuring & UV-VIS Measurement: UV-Vis spectra of solutions in 100 μm quartz cell exposed to LED light were recorded using Perkin Elmer Lambda 850 UV-Vis Spectrophotometer. The spectrum was regarded as “after”. • 5. % T Calculation: % Loss is expressed as % T increase at the specific wavelength of Soret band for each porphyrin solution. […] The solution was transferred into 1 cm quartz cell and UV-Vis spectra were recorded using Perkin Elmer Lambda 850 UV-Vis Spectrophotometer. […]

Setting [5] is: 500 ppm, 1-Propanol, stirred overnight.
Where [6] appears, read: 500 ppm, monomer DMA, stirred overnight.
Setting [7] is: 500 ppm, monomer HEMA, stirred overnight.
[8] abbreviates: 500 ppm, simulated formulation 1-PrOH/DMA/TRIS (1:1:1).
[9] abbreviates: 500 ppm, simulated formulation 1-PrOH/DMA/TRIS/Silicone oil (1:1:1:1).
Where [10] appears, read: DMAC, photoinitiator 0.6 wt %, 450 nm LED 55 mW/cm^2 for 30 s.

Read-outs that look alike come from different tables or passages of the source.

Turning to `C=C(C)C(=O)NCCC[N+](C)(C)Cc1ccc(/C2=C3\C=CC(=N3)/C(c3ccc(C[N+](C)(C)CCCNC(=O)C(=C)C)cc3)=c3/cc/c4[n]3[Cu][n]3c2ccc3/C(c2ccc(C[N+](C)(C)CCCNC(=O)C(=C)C)cc2)=C2/C=CC(=N2)\C=4c2ccc(C[N+](C)(C)CCCNC(=O)C(=C)C)cc2)cc1` [Compound 8, Cu(II) tetra-(dimethylaminopropylmethacrylamidophenyl) porphine tetrabromide], the Solubility entry in data set [1] is on record as “Soluble”. Besides, the “Molar extinction coefficients for Soret band” value in data set [2] is listed as 490,000-544,000 M^−1 cm^−1. Also, the “Stability (% T increase at Soret band) under simulated photocuring, without monomers” value in data set [3] is “show % T increase”.

On to “copper tetraphenylporphyrin [Cu-TPP, reference compound]”, for which the Solubility result in data set [1] (setting [5]) was “Insoluble”; in data set [1] (setting [6]), “Soluble”; in data set [1] (setting [7]), “Insoluble”; in data set [1] (setting [8]), “Insoluble”; in data set [1] (setting [9]) it was “Insoluble”. In addition, in data set [3], the “Stability (% T increase at Soret band) under simulated photocuring, without monomers” value is given as “significantly more stable than ZnTPP”.

As to `C1=Cc2nc1c(-c1ccccc1)c1ccc([n-]1)c(-c1ccccc1)c1nc(c(-c3ccccc3)c3ccc([n-]3)c2-c2ccccc2)C=C1.[Zn+2]` [ZnTPP, zinc tetraphenylporphyrin, reference compound], in data set [4], the “Stability under simulated thermal curing, without monomers” value is listed as “difference is not observed”. Also, the “Stability (% T increase at Soret band) under simulated photocuring, without monomers” value in data set [3] (setting [10]) was “CuTPP is significantly more stable than ZnTPP”.

`C=CC(=O)NCCC[N+](C)(C)Cc1ccc(/C2=C3\C=CC(=N3)/C(c3ccc(C[N+](C)(C)CCCNC(=O)C=C)cc3)=c3/cc/c4[n]3[Cu][n]3c2ccc3/C(c2ccc(C[N+](C)(C)CCCNC(=O)C=C)cc2)=C2/C=CC(=N2)\C=4c2ccc(C[N+](C)(C)CCCNC(=O)C=C)cc2)cc1` [Compound 9, Cu(II) tetra-(dimethylaminopropylacrylamidophenyl) porphine tetrabromide]: the Solubility result in data set [1] (setting [5]) is listed as “Soluble”; in data set [1] (setting [6]), “Partially”; in data set [1] (setting [7]), “Soluble”; in data set [1] (setting [8]), “Soluble”; in data set [1] (setting [9]), “Partially”. Besides, in data set [2], the “Molar extinction coefficients for Soret band” value is listed as 490,000-544,000 M^−1 cm^−1. In data set [4] (DMA/TRIS/1-PrOH), the “Stability under simulated thermal curing, with monomers” value is “much better stability”. In addition, the “Stability under simulated thermal curing, without monomers” value in data set [4] is “much better stability”. Moreover, the “Stability (% T increase at Soret band) under simulated photocuring, with monomers” value in data set [3] (DMA/TRIS/1-PrOH, 500 ppm, photoinitiator 0.6 wt %, 450 nm LED 55 mW/cm^2 for 30 s) is given as “not observed”. In addition, the “Stability (% T increase at Soret band) under simulated photocuring, without monomers” value in data set [3] (setting [10]) was “show % T increase”.
